Test results from patent publication US10874743B2, “IRAK degraders and uses thereof” (Kymera Therapeutics, Inc., priority 2017, dated 2020).

Molecular target: T1, IRAK4 (Homo sapiens, UniProt Q9NWZ3)
T1 sequence (Q9NWZ3 1-460): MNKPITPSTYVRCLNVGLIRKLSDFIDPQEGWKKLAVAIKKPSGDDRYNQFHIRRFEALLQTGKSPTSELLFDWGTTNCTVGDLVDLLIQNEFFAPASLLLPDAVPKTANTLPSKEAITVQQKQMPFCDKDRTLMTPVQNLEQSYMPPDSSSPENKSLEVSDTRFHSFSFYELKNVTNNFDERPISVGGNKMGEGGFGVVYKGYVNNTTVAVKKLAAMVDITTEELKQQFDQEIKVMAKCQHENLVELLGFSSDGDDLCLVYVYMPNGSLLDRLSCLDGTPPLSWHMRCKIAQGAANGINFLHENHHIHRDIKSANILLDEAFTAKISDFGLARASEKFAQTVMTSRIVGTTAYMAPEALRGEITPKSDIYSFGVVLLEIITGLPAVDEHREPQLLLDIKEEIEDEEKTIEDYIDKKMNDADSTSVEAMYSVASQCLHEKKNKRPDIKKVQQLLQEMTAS
Assay: THP-1 degradation assay (western blot, % IRAK4 degraded after 24 hours)
Format: cell-based
Set-up: endogenous in cells
Conditions: THP-1 cells
Method: Compounds were reconstituted in DMSO to make stock solutions at concentration of 60 mM. THP-1 and OCI-LY10 cells were maintained in RPMI-1640 medium containing 10% FBS, 0.5 μM 2-ME or 20% FBS, 55 μM 2-ME, and 1% L-Glutamine respectively.
Cells were seeded into 6-well plates with 5e6 cells per well. 200 μL of diluted compounds were added to cells to the final concentration of 0.003-10 μM. After 4 or 24 hour-incubation at 37° C., cells were collected into 2 mL Eppendorf tubes and centrifuged at 1,000 rpm for 5 min. The cell pellets were washed with 1×DPBS once and resuspended in 60 μL lysis buffer. The cells were lysed on ice for 10 min, then centrifuged at 14,000 rpm for 10 min at 4° C. and the supernatants were collected for western blots. For THP-1 cells, the lysis buffer contained 40 mM pH 7.4 HEPES, 140 mM NaCl, 2.5 mM EDTA, 1% NP-40, 0.1% SDS, and protease inhibitor cocktail (Roche, Cat. No. 05892791001). For OCI-LY10 cells, RIPAbuffer (Thermo Fisher, 89900) with Halt Protease and Phosphatase Inhibitor Cocktail (Thermo Fisher, 78446) was applied.
The protein concentration of cell lysates was quantified with Pierce™ BCA Protein Assay Kit (Pierce, 23227). Albumin standards at different concentrations were prepared, involving 2,000 ug/mL, 1,500 ug/mL, 1,000 ug/mL, 750 ug/mL, 500 ug/mL, 250 ug/mL, 125 ug/mL, and 25 ug/mL. BCA working reagents were prepared by mixing BCA reagent A with reagent B in 50:1 ratio. 200 μL of the BCA working reagents were added to 25 μL of BCA standard or cell lysates in microplate, and mixed thoroughly on a plate shaker for 30 seconds. After incubation at 37° C. for 30 min, the absorbance of samples at 562 nm were measured with EnVision Plate Reader.
Protein lysates were prepared in NuPAGE™ LDS sample buffer and NuPAGE™ sample reducing agent, and incubated at 95° C. for 5 min. For western blots, 20-25 μg of total proteins were resolved in 4-12% Bis-Tris gels (Introgen, WG1403A) or 10% Bis-Tris Midi gels (Invitrogen, WG1202BOX) running with 1×MOPS SDS running buffer (Invitrogen, NP0001) or 1×MES SDS running buffer (Invitrogen, NP0002). The proteins were transferred to low fluorescence PVDF membranes using the Trans-Blot Turbo Transfer System. Membranes were then blocked in Odyssey blocking buffer at RT for 1 h followed by primary incubation at 4° C. overnight. The primary antibodies were IRAK1 rabbit monoclonal antibody (CST, #4504S, 1:500), IRAK3 rabbit polyclonal antibody (CST, #4369, 1:500), IRAK4 rabbit polyclonal antibody (CST, #4363S, 1:1,000), MyD88 rabbit monoclonal antibody (Abcam, Ab133739, 1:2,000), j3-actin mouse monoclonal antibody (Sigma, A5441, 10,000), and Gapdh mouse monoclonal antibody (Millipore, MAB374, 1:5,000). Membranes were washed three times with 1×TBST, and then incubated with IR Dye 800 CW Goat anti-rabbit (Licor, #926-32211) and IR Dye 700 CW Goat anti-mouse (Licor, #926-68070) secondary antibodies in 1:10,000 dilution at RT for 1 h. The western blot images were obtained using Odyssey Imaging System.
THP-1 results at 24 hours. The letter codes indicate the percentage of IRAK4 degraded after 24 hours: A (>50% degradation), B (>20-50% degradation) and C (<20% degradation)

Row | SMILES | THP-1 24 h % IRAK4 Degradation
1 | O=C1CCC(N2C(=O)c3cccc(NCCOCCOCCOCCOCCN4CCN(CCOCC(F)CNC(=O)c5cnc(Nc6ccc7cnccc7n6)cc5NC5CC5)CC4)c3C2=O)C(=O)N1 (centres unmarked) [I-47] | B (>20-50% degradation)
2 | O=C1CCC(N2C(=O)c3cccc(NCCOCCOCCOCCOCCOCC(F)CNC(=O)c4cnc(Nc5ccc6cnccc6n5)cc4NC4CC4)c3C2=O)C(=O)N1 (centres unmarked) [I-48] | B (>20-50% degradation)
3 | O=C1CCC(N2C(=O)c3cccc(NCCOCCOCCOCC(F)CNC(=O)c4cnc(Nc5ccc6cnccc6n5)cc4NC4CC4)c3C2=O)C(=O)N1 (centres unmarked) [I-49] | B (>20-50% degradation)
4 | O=C1CCC(N2C(=O)c3cccc(NCCOCCOCCOCCOCC(F)CNC(=O)c4cnc(Nc5ccc6cnccc6n5)cc4NC4CC4)c3C2=O)C(=O)N1 (centres unmarked) [I-50] | B (>20-50% degradation)
5 | O=C1CCC(N2C(=O)c3cccc(NCCOCCOCCOCCOCCOCCOCC(F)CNC(=O)c4cnc(Nc5ccc6cnccc6n5)cc4NC4CC4)c3C2=O)C(=O)N1 (centres unmarked) [I-51] | C (<20% degradation)
6 | O=C1CCC(N2C(=O)c3cccc(NCCOCCOCCOCCOCCOCC(F)CNC(=O)c4cnc(Nc5ccc6ncsc6c5)cc4NC4CC4)c3C2=O)C(=O)N1 (centres unmarked) [I-52] | C (<20% degradation)
7 | CC(C)(OCC(=O)NCCOCCOCCNc1cccc2c1C(=O)N(C1CCC(=O)NC1=O)C2=O)C(F)CNC(=O)c1cnc(Nc2ccc3cnccc3n2)cc1NC1CC1 (centres unmarked) [I-55] | C (<20% degradation)
8 | N#Cc1cnc(Nc2cc(NC3CC3)c(C(=O)NCC(F)COCCOCCOCCNc3cccc4c3C(=O)N(C3CCC(=O)NC3=O)C4=O)cn2)c(F)c1 (centres unmarked) [I-58] | C (<20% degradation)
9 | O=C(COc1cccc2c1C(=O)N(C1CCC(=O)NC1=O)C2=O)NCCOCCOCCOCC(F)CNC(=O)c1cnc(Nc2ccc3cnccc3n2)cc1NC1CC1 (centres unmarked) [I-96] | C (<20% degradation)
10 | O=C(COc1cccc2c1C(=O)N(C1CCC(=O)NC1=O)C2=O)NCCOCCOCCOCCOCCOCC(F)CNC(=O)c1cnc(Nc2ccc3cnccc3n2)cc1NC1CC1 (centres unmarked) [I-97] | B (>20-50% degradation)
11 | O=C(COc1cccc2c1C(=O)N(C1CCC(=O)NC1=O)C2=O)NCCOCCOCCOCCOCC(F)CNC(=O)c1cnc(Nc2ccc3cnccc3n2)cc1NC1CC1 (centres unmarked) [I-98] | B (>20-50% degradation)
12 | O=C(COc1cccc2c1C(=O)N(C1CCC(=O)NC1=O)C2=O)NCCOCCOCC(F)CNC(=O)c1cnc(Nc2ccc3cnccc3n2)cc1NC1CC1 (centres unmarked) [I-99] | C (<20% degradation)
13 | O=C(COc1cccc2c1C(=O)N(C1CCC(=O)NC1=O)C2=O)NCCCOCCCOCC(F)CNC(=O)c1cnc(Nc2ccc3cnccc3n2)cc1NC1CC1 (centres unmarked) [I-100] | B (>20-50% degradation)
14 | Cc1ncsc1-c1ccc(CNC(=O)[C@@H]2C[C@@H](O)CN2C(=O)[C@@H](NC(=O)COCCOCCOCCOCCOCCOCC(F)CNC(=O)c2cnc(Nc3ccc4cnccc4n3)cc2NC2CC2)C(C)(C)C)cc1 (some centres unmarked) [I-119] | B (>20-50% degradation)
15 | Cc1ncsc1-c1ccc(CNC(=O)[C@@H]2C[C@@H](O)CN2C(=O)[C@@H](NC(=O)COCCOCCOCC(F)CNC(=O)c2cnc(Nc3ccc4cnccc4n3)cc2NC2CC2)C(C)(C)C)cc1 (some centres unmarked) [I-120] | C (<20% degradation)
16 | Cc1ncsc1-c1ccc(CNC(=O)C2C[C@@H](O)CN2C(=O)[C@@H](NC(=O)COCCOCCOC(C)C(F)CNC(=O)c2cnc(-n3ncc4cc(C#N)cnc43)cc2NC2CC2)C(C)(C)C)cc1 (some centres unmarked) [I-122] | C (<20% degradation)
17 | COc1cc(Nc2nc(N[C@H]3CCCC[C@H]3N)n3ccnc3c2C(N)=O)cc(OCCOCCOCCOCC(=O)N[C@H](C(=O)N2C[C@H](O)C[C@H]2C(=O)NCc2ccc(-c3scnc3C)cc2)C(C)(C)C)c1 [I-162, 5-[[(1S,2R)-2-aminocyclohexyl]amino]-7-[3-[2-[2-[2-[2-[[(1S)-1-[(2S,4R)-4-hydroxy-2-[[4-(4-methylthiazol-5-yl)phenyl]methylcarbamoyl]pyrrolidine-1-carbonyl]-2,2-dimethyl-propyl]amino]-2-oxo-ethoxy]ethoxy]ethoxy]ethoxy]-5-methoxy-anilino]imidazo[1,2-c]pyrimidine-8-carboxamide] | A (>50% degradation)
18 | COc1cc(Nc2nc(N[C@H]3CCCC[C@H]3N)n3ccnc3c2C(N)=O)cc(OCCOCCOCCOCCOCCOCC(=O)N[C@H](C(=O)N2C[C@H](O)C[C@H]2C(=O)NCc2ccc(-c3scnc3C)cc2)C(C)(C)C)c1 [I-163] | C (<20% degradation)
19 | COc1cc(Nc2nc(N[C@H]3CCCC[C@H]3N)n3ccnc3c2C(N)=O)cc(OC)c1OCCOCCOCCOCCOCC(=O)N[C@H](C(=O)N1C[C@H](O)C[C@H]1C(=O)NCc1ccc(-c2scnc2C)cc1)C(C)(C)C [I-164] | C (<20% degradation)
20 | COc1cc(Nc2nc(N[C@H]3CCCC[C@H]3N)n3ccnc3c2C(N)=O)cc(OC)c1OCCOCCOCCOCC(=O)N[C@H](C(=O)N1C[C@H](O)C[C@H]1C(=O)NCc1ccc(-c2scnc2C)cc1)C(C)(C)C [I-165] | C (<20% degradation)
21 | Cc1ncsc1-c1ccc(CNC(=O)[C@@H]2C[C@@H](O)CN2C(=O)[C@@H](NC(=O)COCCOCCn2ccc3c(Nc4nc(N[C@@H]5CCCC[C@@H]5N)cc5[nH]cnc(=O)c45)cccc32)C(C)(C)C)cc1 [I-189, (2S,4R)-1-[(2S)-2-[[2-[2-[2-[4-[[7-[[(1R,2S)-2-aminocyclohexyl]amino]-4-oxo-3H-pyrido[4,3-d]pyrimidin-5-yl]amino]indol-1-yl]ethoxy]ethoxy]acetyl]amino]-3,3-dimethyl-butanoyl]-4-hydroxy-N-[[4-(4-methylthiazol-5-yl)phenyl]methyl]pyrrolidine-2-carboxamide] | C (<20% degradation)
22 | NC(=O)c1nnc(N[C@@H]2CCCC[C@@H]2N)nc1Nc1cccc2c1ccn2CCOCCOCCOCCOCCNc1cccc2c1C(=O)N(C1CCC(=O)NC1=O)C2=O (stereo partly drawn) [I-194, 3-[[(1R,2S)-2-aminocyclohexyl]amino]-5-[[1-[2-[2-[2-[2-[2-[[2-(2,6-dioxo-3-piperidyl)-1,3-dioxo-isoindolin-4-yl]amino]ethoxy]ethoxy]ethoxy]ethoxy]ethyl]indol-4-yl]amino]-1,2,4-triazine-6-carboxamide] | C (<20% degradation)
23 | Cc1ncsc1-c1ccc(CNC(=O)[C@@H]2C[C@@H](O)CN2C(=O)[C@@H](NC(=O)COCCOCCOCCOCCNC(=O)Cn2ccc3c(Nc4nc(N[C@@H]5CCCC[C@@H]5N)cc5[nH]cnc(=O)c45)cccc32)C(C)(C)C)cc1 [I-195, (2S,4R)-1-[(2S)-2-[2-[2-[2-[2-[2-[[2-[4-[[7-[[(1R,2S)-2-Aminocyclohexylamino]-4-oxo-3H-pyrido[4,3-d]pyrimidin-5-yl]amino]indol-1-yl]acetyl]amino]ethoxy]ethoxy]ethoxy]ethoxy]acetyl]amino]-3,3-dimethyl-butanoyl]-4-hydroxy-N-[[4-(4-methylthiazol-5-yl)phenyl]methyl]pyrrolidine-2-carboxamide] | C (<20% degradation)
